SMILES strings stand for the structures.

Here are results for three molecules from PMC8498988, “Scaffold Hybridization Strategy Leads to the Discovery of Dopamine D3 Receptor-Selective or Multitarget Bitopic Ligands Potentially Useful for Central Nervous System Disorders” (ACS Chemical Neuroscience, 2021).

For one experiment, the target named is D3R (Homo sapiens, UniProt P35462). Put plainly: Radioligand competition binding at human D3R ([3H]N-methylspiperone, HEK293 membranes). On the set-up: expressed in transfected cells; host or cells: HEK293. The settings on record: selectivity. (In general: Loss of bound radioactivity is the signal in a displacement assay; it reports binding, not function.)
Sequence of D3R (P35462 whole entry): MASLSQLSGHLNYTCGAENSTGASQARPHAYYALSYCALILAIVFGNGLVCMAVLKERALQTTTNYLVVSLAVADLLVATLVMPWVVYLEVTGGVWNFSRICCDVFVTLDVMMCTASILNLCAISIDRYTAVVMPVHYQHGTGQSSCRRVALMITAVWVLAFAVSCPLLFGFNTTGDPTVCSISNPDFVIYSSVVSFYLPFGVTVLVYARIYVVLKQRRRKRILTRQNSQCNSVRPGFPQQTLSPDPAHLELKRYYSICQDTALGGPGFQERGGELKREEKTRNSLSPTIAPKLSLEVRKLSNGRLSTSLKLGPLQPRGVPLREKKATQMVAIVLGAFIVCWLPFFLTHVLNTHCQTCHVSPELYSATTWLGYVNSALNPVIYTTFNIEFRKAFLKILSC
The target in another experiment is T1, 5-HT2CR (Homo sapiens, UniProt P28335).
T1 sequence (P28335 33-458): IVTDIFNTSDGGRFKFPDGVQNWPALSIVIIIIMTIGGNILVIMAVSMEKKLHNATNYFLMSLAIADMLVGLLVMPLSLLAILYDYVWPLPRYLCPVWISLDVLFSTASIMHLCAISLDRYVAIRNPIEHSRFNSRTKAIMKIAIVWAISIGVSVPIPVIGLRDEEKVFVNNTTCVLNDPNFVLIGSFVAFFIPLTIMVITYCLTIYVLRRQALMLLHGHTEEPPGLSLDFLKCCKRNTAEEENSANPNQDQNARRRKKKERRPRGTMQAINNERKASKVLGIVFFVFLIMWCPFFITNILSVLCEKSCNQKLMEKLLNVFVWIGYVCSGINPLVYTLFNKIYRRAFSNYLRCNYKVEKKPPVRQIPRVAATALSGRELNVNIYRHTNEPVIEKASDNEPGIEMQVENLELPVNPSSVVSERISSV
Put plainly: 5-HT2C IP-1 formation (HEK-h5HT2C cells). The settings on record: for % stimul., 5-HT2C IP-1 formation: agonist mode, normalized to the maximal stimulation by serotonin; for functional behavior at 5-HT2CR: in words.

In another experiment the target is T2, D4R (Homo sapiens, UniProt P21917).
T2 sequence (P21917 1-419): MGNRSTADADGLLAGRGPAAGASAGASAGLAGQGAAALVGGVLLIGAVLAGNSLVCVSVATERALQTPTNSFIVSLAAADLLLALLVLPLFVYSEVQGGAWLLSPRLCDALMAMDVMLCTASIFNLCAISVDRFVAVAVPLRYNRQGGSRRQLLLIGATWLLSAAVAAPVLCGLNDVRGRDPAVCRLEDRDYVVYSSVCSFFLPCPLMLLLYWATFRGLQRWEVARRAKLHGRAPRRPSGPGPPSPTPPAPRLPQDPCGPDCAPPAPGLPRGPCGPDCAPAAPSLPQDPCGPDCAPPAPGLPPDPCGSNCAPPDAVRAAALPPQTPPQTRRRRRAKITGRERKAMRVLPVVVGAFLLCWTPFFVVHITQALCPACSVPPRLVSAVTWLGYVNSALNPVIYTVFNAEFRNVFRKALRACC
The experiment in a line: D4 adenylate cyclase/cAMP functional assay (HEK-D4.4-AC1 cells). It counts as cell-based. On the set-up: expressed in transfected cells; host or cells: HEK-D4.4-AC1 cells. The settings on record: for EC50 / % stimul., D4 adenylate cyclase: agonist mode; for EC50: inhibition of forskolin-stimulated cAMP formation; for % stimul., D4 adenylate cyclase: normalized to maximal effect of quinpirole; for functional behavior at D4R: in words. The procedure: HEK-D4.4-AC1 cells are grown to confluency on […]. The cells are plated at a density of 375,000 cells per well in 48-well plates in DMEM supplemented with 5% FetalClone, 5% BCS, and pen-strep. After ∼36 h, the medium is changed to DMEM supplemented with 10% charcoal-stripped FetalClone and pen-strep. The medium is removed ∼18 h later. For agonist assays, 0.8 mL of EBSS (116 mM NaCl, 22 mM glucose, 15 mM HEPES, 8.7 mM NaH2PO4, 5.4 mM KCl, 1.3 mM CaCl2, 1.2 mM MgSO4, 1 mM ascorbic acid, 0.5 mM IBMX [3-isobutyl-1-methyl-xanthine], and 2% BCS, pH 7.4 at 37 °C) is added, cells are incubated for 20 min, agonists are added, and, after a 20 min incubation, 10 μM of forskolin is added in a final volume of 1 mL. For antagonists, 0.7 mL of EBSS is added, cells are incubated for 10 min, antagonists are added, cells are incubated for 10 min, 2 nM quinpirole is added, and after a 20 min incubation, 10 μM forskolin is added in a final volume of 1 mL. For all conditions, after a 20 min incubation with forskolin, the reaction is terminated by aspiration of the buffer, and 0.1 mL of trichloroacetic acid is added. The plates are incubated for 2 h on a rotator. Adenylate cyclase activity is measured using a cyclic AMP EIA kit (Cayman). Aliquots (9 μL) of each well are diluted to 200 μL with EIA buffer from the kit, and 50 μL of dilution is added to the EIA plate. After addition of tracer and monoclonal antibody, the EIA plates are incubated for 18 h at 4 °C. The reaction is aspirated, the plates are washed with 5 × 300 μL wash buffer, and Ellman’s reagent is added. After a 2 hour incubation in the dark on a rotator, the plates are read at 410 nm. Basal cAMP is subtracted from all values. D4R agonists inhibit forskolin-stimulated cAMP formation, and maximal inhibition is defined with 1 μM quinpirole. Data normalized to percent forskolin stimulation are shown in the graph. The maximal effect is normalized to maximal effect of quinpirole in the tables. For antagonists, maximal reversal of inhibition of cAMP formation is defined with 10 μM haloperidol.
Background: Cyclic AMP is a second messenger, typically raised through Gs and lowered through Gi signalling.

Description for 5-HT2CR: HEK-h5HT2A or HEK-h5HT2C cells are used as the tissue source. The day before the experiment, cells are plated in 24-well plates at a density of 400,000 cells per well using DMEM supplemented with charcoal-stripped FetalClone. Drugs are made up in stimulation buffer supplied in the kit. Medium is removed from the well, test compounds or serotonin or antagonist or buffer is added, and the cells are incubated for 1 h. The cells are lysed for 30 min, and 50 μL of cell lysate is added to the IP-1 plates. After the addition of appropriate antibodies, the plates are incubated for 3 h, washed six times, incubated with the substrate for 20 min, and, after termination of the reaction, the plate is read on a plate reader at 450 nm with a correction at 620 nm.

As for `O=C(NCCCCN1CCN(c2cccc(Cl)c2Cl)CC1)C1COCC(c2ccccc2)(c2ccccc2)O1` (stereo not shown) [compound 3, N-(4-(4-(2,3-Dichlorophenyl)piperazin-1-yl)butyl)-6,6-diphenyl-1,4-dioxane-2-carboxamide], the 5-HT1A/D3 on D3R (ratio of Ki values 5-HT1AR/D3R) amounted to 121. Moreover, the 5-HT2A/D3 on D3R (ratio of Ki values 5-HT2AR/D3R) is 108. Also, the 5-HT2C/D3 on D3R (ratio of Ki values 5-HT2CR/D3R) came to 269. In addition, on D3R (ratio of Ki values D1R/D3R), the D1/D3 amounted to 185.
By EC50 is commonly meant the concentration at which the effect is half-maximal. Low values mean greater potency, high ones weaker potency. For the molecule `O=C(NCCCCN1CCN(c2cccc(Cl)c2Cl)CC1)C1COC(c2ccccc2)(c2ccccc2)CO1` (stereo not shown) [compound 6, N-(4-(4-(2,3-Dichlorophenyl)piperazin-1-yl)butyl)-5,5-diphenyl-1,4-dioxane-2-carboxamide], on 5-HT2CR, the EC50 turned out to be 380 ± 130 nM; the “% stimul., 5-HT2C IP-1 formation” value amounted to 33%; the “functional behavior at 5-HT2CR” value was “D3R and 5-HT2CR partial agonists with high and low potency, respectively”. At D4R, the EC50 is 21.7 ± 8.4 nM; the “% stimul., D4 adenylate cyclase” value is 76.7%; the “functional behavior at D4R” value was “efficacious 5-HT1AR and D4R agonists with high potency”.
`O=C(NCCCCN1CCN(c2cccc(Cl)c2Cl)CC1)C1COc2ccccc2O1` (stereo not shown) [compound 9, N-(4-(4-(2,3-Dichlorophenyl)piperazin-1-yl)butyl)-2,3-dihydrobenzo[b][1,4]dioxine-2-carboxamide]: on 5-HT2CR, the EC50 turned out to be 750 ± 280 nM; the “% stimul., 5-HT2C IP-1 formation” value was 37%; the “functional behavior at 5-HT2CR” value was “D3R and 5-HT2CR partial agonists with high and low potency, respectively”. Also, at D4R, the EC50 came to 15.3 ± 1.9 nM; the “% stimul., D4 adenylate cyclase” value came to 73.1%; the “functional behavior at D4R” value is “efficacious 5-HT1AR and D4R agonists with high potency”.
